pIC50: −log10 of the molar value.
Tests used:
Type in all cases: cell-based, Human papilloma virus
HPV31 = HPV31 DNA levels in keratinocytes by real-time PCR; settings: effective (pseudo) IC50
Method: (§1) Human keratinocytes, including those maintaining HPV episomes, are cultured on mitomycin C-treated J2 3T3 cells in media containing three parts Dulbecco's modified Eagle medium (DMEM) and one part F12 media, our modification of published methods (Rheinwald and Green, 1975). Media (E Media) is supplemented with 0.4 μg/mL hydrocortisone, 10 ng/mL cholera toxin, 5 μg/mL insulin, 24 μg/mL adenine, 5 μg/mL transferrin, […] (T3), 10 ng/mL epidermal growth factor (EGF), 1% penicillin-streptomycin, and 5% fetal bovine serum (FBS). All cells are passaged at 70% confluency at a split ratio of 1:5.
(§2) Polyamides for HPV 18 are dissolved at 10 mM in 100% DMSO and diluted with H2O to 1 mM. Polyamides are added to cells in E media at final concentrations of 0.1-10 μM, with final DMSO concentrations of 0.1%. As controls, cells are incubated with normal E media and E media containing the “vehicle” 0.1% DMSO. The HPV DNA levels are then quantified according to previously published procedures (Garner-Hamrick and Fisher, Virology, 301, 334-41, 2002). After incubation, cells are harvested from the plates by either trypsinization or direct lysis with proteinase K digestion buffer (PK buffer: 100 mM NaCl, 10 mM Tris pH 8, 25 mM EDTA, 0.5% SDS, 0.1 mg/mL proteinase K). Trypsinized cells are counted on a hemocytometer and pelleted by centrifugation. Episomal HPV is isolated by the Hirt method (Hirt, 1967) and cell pellets are lysed in 0.6% SDS with 10 mM EDTA. NaCl is next added to a final concentration of 1 M. Following an overnight incubation at 4° C., precipitates containing the chromosomal DNA are spun down and episomal DNA precipitated by the addition of isopropanol. Cells lysed directly in PK buffer are transferred to microfuge tubes and incubated at 50° C. for 2 h. Lysates are then extracted with phenol/chloroform/isoamyl alcohol and spun through a phase lock gel (Eppendorf, Hamburg, Germany). Total DNA is then precipitated with 0.3 M NaOAc and 2.5 vol. ethanol and resuspended in Tris-EDTA (TE) buffer.
HPV31 primers-probe sets for PCR were also designed within the L1 gene:
(§3) All primers and probes are synthesized and HPLC purified by Applied Biosystems (Foster City, Calif.). The HPV probes are labeled with the 5′ reporter dye FAM (6-carboxy-fluorescein) and the 3′ quencher dye TAMRA (6-carboxytetramethyl-rhodamine). A standard curve is generated using a range of 10^8 to 10 copies/reaction of cloned, genomic HPV31 or HPV18 DNA using the following formula: (1.82×10^15)(μg/μL stock DNA)/(length in base pairs)(2)=copies/μL stock DNA. PCR reactions contain final concentrations of 1× Universal Master Mix (PE Applied Biosystems), 200 nM of each primer, and 250 nM probe (PE Applied Biosystems) in a reaction volume of 25 μL. Each Hirt-isolated DNA sample is analyzed in triplicate reactions for episomal HPV. Copies/reaction are determined from the standard curve, and copies/cell determined according to the following formula: (copies/reaction)×(DNA dilution)/(total # cells)=copies/cell.

HPV18 = HPV18 DNA levels in keratinocytes by real-time PCR; settings: effective (pseudo) IC50
Method: as §1, §2
Viral DNA levels are next quantified according to variations on our previously published methods (Garner-Hamrick and Fisher, Virology, 301, 334-41, 2002). Quantitative PCR is performed using Real-Time PCR technology on an ABI PRISM 7700 Sequence Detector. All primers and probes were designed using Primer Express 1.0 (ABI). For HPV 18, PCR primer-probe sets were designed within the L1 gene:
as §3

HPV 16 = HPV 16 episome DNA levels in W12E cells by Q-PCR (Taqman); settings: for pIC50: effective (pseudo) IC50, 50% reduction in HPV DNA relative to vehicle (0.1% DMSO), read-out: HPV-16 IC50; for effect on absolute HPV 16 DNA levels: higher doses, in some experiments, FIG. 3
Method: Cells maintaining HPV 16 DNA were cultured for 72 hours in the presence of cidofovir, interferon γ or polyamide. Viral DNA was then quantified using real-time PCR and compared to vehicle (DMSO)-treated control cultures.
Compounds were initially tested for effects on HPV 16 episome DNA levels in W12E cells by Q-PCR (Taqman™) over 3 concentration ranges (0.1, 1 and 10 μM). W12E cells are a cervical keratinocyte cell line originally identified by M. Stanley (Cambridge University), and later optimized and provided by P. Lambert (U. of Wisconsin). […] In all cases (initial tests and follow-up IC50 tests), dose testing was performed in triplicate. […] Furthermore, all experiments were conducted in triplicate, multiple times. The data were then combined, pseudo or effective IC50 values calculated, and variance determined to reveal the fit of the data to the model and its reliability.
Keratinocytes that maintain HPV 16 episomes were treated with increasing concentrations of polyamides.

Row | Compound | pIC50 (HPV31) | pIC50 (HPV18) | pIC50 (HPV 16) | effect on absolute HPV 16 DNA levels (HPV 16)
1 | CC(=O)N[C@H](CCNC(=O)c1cc(NC(=O)c2cc(NC(=O)CCNC(=O)c3nc(NC(=O)c4cc(NC(=O)c5cc(NC(=O)CCNC(=O)c6cc(NC(=O)c7cc(NC(=O)c8nccn8C)cn7C)cn6C)cn5C)cn4C)cn3C)cn2C)cn1C)C(=O)Nc1cc(C(=O)Nc2cc(C(=O)NCCC(=O)Nc3cc(C(=O)Nc4cc(C(=O)Nc5cc(C(=O)NCCC(=O)Nc6cc(C(=O)Nc7cc(C(=O)Nc8cc(C(=O)NCCC(=O)NCCCN(C)C)n(C)c8)n(C)c7)n(C)c6)n(C)c5)n(C)c4)n(C)c3)n(C)c2)n(C)c1 [Polyamide 1068, ImPPβPPIβPPγNHAcPPβPPPβPPPβDp] | 6.00 to 7.00 | 6.00 to 7.00 | 6.00 to 7.00 | –
2 | CN(CCCN)CCCNC(=O)CCNC(=O)c1cc(NC(=O)c2cc(NC(=O)c3cc(NC(=O)c4cc(NC(=O)CCNC(=O)c5cc(NC(=O)c6cc(NC(=O)[C@H](N)CCNC(=O)c7cc(NC(=O)c8cc(NC(=O)c9cc(NC(=O)CCNC(=O)c%10cc(NC(=O)c%11cc(NC(=O)c%12nccn%12C)cn%11C)cn%10C)cn9C)cn8C)cn7C)cn6C)cn5C)cn4C)cn3C)cn2C)cn1C [Polyamide 1030, ImPPβPPPγNH2PPβPPPPβTa] | 6.00 to 7.00 | 6.00 to 7.00 | 6.00 to 7.00 | –
3 | ImPPβPPPγNH2PPβPPPPβDp [Polyamide 1024] | 6.00 to 7.00 | ≤ 6.00 | < 6.00 | –
4 | CN(CCCN)CCCNC(=O)CCNC(=O)CCNC(=O)c1cc(NC(=O)c2cc(NC(=O)c3cc(NC(=O)CCNC(=O)c4cc(NC(=O)c5cc(NC(=O)c6cc(NC(=O)CCCNC(=O)c7cc(NC(=O)c8cc(NC(=O)c9cc(NC(=O)CCNC(=O)c%10cc(NC(=O)c%11cc(NC(=O)c%12cc(NC(=O)c%13nccn%13C)cn%12C)cn%11C)cn%10C)cn9C)cn8C)cn7C)cn6C)cn5C)cn4C)cn3C)cn2C)cn1C [Polyamide 1031, ImPPPβPPPγPPPβPPPββTa] | 6.00 to 7.00 | 6.00 to 7.00 | 6.00 to 7.00 | nearly complete elimination of detectable viral DNA
5 | CN(C)CCCNC(=O)CCNC(=O)c1cc(NC(=O)c2cc(NC(=O)c3cc(NC(=O)CCNC(=O)c4cc(NC(=O)c5cc(NC(=O)c6cc(NC(=O)CCNC(=O)c7cc(NC(=O)c8cc(NC(=O)[C@@H](CCN)NC(=O)c9cc(NC(=O)c%10cc(NC(=O)CCNC(=O)c%11nc(NC(=O)c%12cc(NC(=O)c%13cc(NC(=O)CCNC(=O)c%14cc(NC(=O)c%15cc(NC(=O)c%16nccn%16C)cn%15C)cn%14C)cn%13C)cn%12C)cn%11C)cn%10C)cn9C)cn8C)cn7C)cn6C)cn5C)cn4C)cn3C)cn2C)cn1C [Polyamide 1050, ImPPβPPIβPPγNH2PPβPPPβPPPβDp] | 6.00 to 7.00 | ≤ 6.00 | 6.00 to 7.00 | –
6 | ImPPβPPIβPPγPPβPPPβPPPPTa [Polyamide 1070] | 6.00 to 7.00 | 6.00 to 7.00 | 6.00 to 7.00 | –
7 | CN(C)CCCNC(=O)CCNC(=O)c1cc(NC(=O)CCNC(=O)c2cc(NC(=O)c3cc(NC(=O)c4cc(NC(=O)CCNC(=O)c5cc(NC(=O)c6cc(NC(=O)[C@H](N)CCNC(=O)CCNC(=O)c7cc(NC(=O)c8cc(NC(=O)CCNC(=O)c9cc(NC(=O)c%10cc(NC(=O)c%11cc(NC(=O)c%12nccn%12C)cn%11C)cn%10C)cn9C)cn8C)cn7C)cn6C)cn5C)cn4C)cn3C)cn2C)cn1C [Polyamide 1029, ImPPPβPPβγNH2PPβPPPβPβDp] | 6.00 to 7.00 | ≤ 6.00 | 6.00 to 7.00 | –
8 | ImPPPβPPβPPPγPPPβPPPβPPPβDp [Polyamide 1004] | 6.00 to 7.00 | ≥ 7.00 | 6.00 to 7.00 | nearly complete elimination of detectable viral DNA
9 | CN(C)CCCNC(=O)CCNC(=O)c1cc(NC(=O)c2cc(NC(=O)c3cc(NC(=O)CCNC(=O)c4cc(NC(=O)c5cc(NC(=O)c6cc(NC(=O)CCNC(=O)c7cc(NC(=O)c8cc(NC(=O)CCCNC(=O)c9cc(NC(=O)c%10cc(NC(=O)CCNC(=O)c%11nc(NC(=O)c%12cc(NC(=O)c%13cc(NC(=O)CCNC(=O)c%14cc(NC(=O)c%15cc(NC(=O)c%16nccn%16C)cn%15C)cn%14C)cn%13C)cn%12C)cn%11C)cn%10C)cn9C)cn8C)cn7C)cn6C)cn5C)cn4C)cn3C)cn2C)cn1C [Polyamide 1040, ImPPβPPIβPPγPPβPPPβPPPβDp] | 6.00 to 7.00 | 6.00 to 7.00 | 6.00 to 7.00 | –
10 | CN(CCCN)CCCNC(=O)c1cc(NC(=O)c2cc(NC(=O)c3cc(NC(=O)c4cc(NC(=O)c5cc(NC(=O)CCNC(=O)c6cc(NC(=O)c7cc(NC(=O)CCCNC(=O)c8cc(NC(=O)c9cc(NC(=O)c%10cc(NC(=O)CCNC(=O)c%11cc(NC(=O)c%12cc(NC(=O)c%13nccn%13C)cn%12C)cn%11C)cn%10C)cn9C)cn8C)cn7C)cn6C)cn5C)cn4C)cn3C)cn2C)cn1C [Polyamide 1069, ImPPβPPPγPPβPPPPPTa] | 6.00 to 7.00 | ≤ 6.00 | 6.00 to 7.00 | –
11 | CN(CCCN)CCCNC(=O)CCNC(=O)c1cc(NC(=O)CCNC(=O)c2cc(NC(=O)c3cc(NC(=O)c4cc(NC(=O)CCNC(=O)c5cc(NC(=O)c6cc(NC(=O)CCCNC(=O)CCNC(=O)c7cc(NC(=O)c8cc(NC(=O)CCNC(=O)c9cc(NC(=O)c%10cc(NC(=O)c%11cc(NC(=O)c%12nccn%12C)cn%11C)cn%10C)cn9C)cn8C)cn7C)cn6C)cn5C)cn4C)cn3C)cn2C)cn1C [Polyamide 1027, ImPPPβPPβγPPβPPPβPβTa] | 6.00 to 7.00 | 6.00 to 7.00 | 6.00 to 7.00 | –
12 | CN(C)CCCNC(=O)CCNC(=O)c1cc(NC(=O)c2cc(NC(=O)c3cc(NC(=O)CCNC(=O)c4cc(NC(=O)c5cc(NC(=O)c6cc(NC(=O)CCNC(=O)c7cc(NC(=O)c8cc(NC(=O)c9cc(NC(=O)CCCNC(=O)c%10cc(NC(=O)c%11cc(NC(=O)CCNC(=O)c%12cc(NC(=O)c%13cc(NC(=O)c%14cc(NC(=O)CCNC(=O)c%15cc(NC(=O)c%16cc(NC(=O)c%17cc(NC(=O)c%18nccn%18C)cn%17C)cn%16C)cn%15C)cn%14C)cn%13C)cn%12C)cn%11C)cn%10C)cn9C)cn8C)cn7C)cn6C)cn5C)cn4C)cn3C)cn2C)cn1C [Polyamide 1047, ImPPPβPPPβPPγPPPβPPPβPPPβDp] | ≤ 6.00 | ≤ 6.00 | < 6.00 | –
13 | CN(CCCN)CCCNC(=O)CCNC(=O)c1cc(NC(=O)c2cc(NC(=O)c3cc(NC(=O)CCNC(=O)c4cc(NC(=O)c5cc(NC(=O)c6cc(NC(=O)CCNC(=O)c7cc(NC(=O)c8cc(NC(=O)c9cc(NC(=O)CCCNC(=O)c%10cc(NC(=O)c%11cc(NC(=O)CCNC(=O)c%12cc(NC(=O)c%13cc(NC(=O)c%14cc(NC(=O)CCNC(=O)c%15cc(NC(=O)c%16cc(NC(=O)c%17cc(NC(=O)c%18nccn%18C)cn%17C)cn%16C)cn%15C)cn%14C)cn%13C)cn%12C)cn%11C)cn%10C)cn9C)cn8C)cn7C)cn6C)cn5C)cn4C)cn3C)cn2C)cn1C [Polyamide 1048, ImPPPβPPPβPPγPPPβPPPβPPPβTa] | 6.00 to 7.00 | 6.00 to 7.00 | 6.00 to 7.00 | –
